The source of these data is US20050148631A1, “Amino heterocyclyl inhibitors of 11-beta-hydroxy steroid dehydrogenase type 1” (AGOURON PHARMACEUTICALS, INC., priority 2003, published 2005).

Read-outs that look alike come from different tables or passages of the source.

In test [1] the test system is normal subjects. The following applies: ingestion; cited from earlier work.
Test [2] deals with healthy human volunteers. The following applies: cited from earlier work.
Test [3] concerns the target T1, 11β-hsd-1 enzyme (Homo sapiens, UniProt P28845). The test is described as follows: 11β-hsd-1 enzyme assay, Kiapp determination (3H-cortisone to cortisol, radio-HPLC). Format: biochemical. The following applies: read-out: Ki app.
Test [4] deals with T1, 11β-hsd-1 enzyme. The test is described as follows: 11β-hsd-1 enzyme assay, percentage of inhibition (3H-cortisone to cortisol, radio-HPLC). The class given is biochemical. The following applies: read-out: % inh @ 0.1 uM.

T1 sequence (P28845 whole entry, species assumed): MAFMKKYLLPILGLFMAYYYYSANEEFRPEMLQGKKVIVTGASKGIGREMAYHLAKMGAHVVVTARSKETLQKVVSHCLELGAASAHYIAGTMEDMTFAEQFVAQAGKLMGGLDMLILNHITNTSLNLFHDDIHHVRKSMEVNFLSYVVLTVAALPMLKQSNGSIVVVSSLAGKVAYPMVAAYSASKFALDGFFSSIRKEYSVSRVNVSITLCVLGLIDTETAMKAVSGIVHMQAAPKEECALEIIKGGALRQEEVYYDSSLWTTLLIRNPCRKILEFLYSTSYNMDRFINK

Consider `CC1(C)[C@@H](OC(=O)CCC(=O)O)CC[C@]2(C)[C@H]3C(=O)C=C4[C@@H]5C[C@@](C)(C(=O)O)CC[C@]5(C)CC[C@@]4(C)[C@]3(C)CC[C@@H]12` [carbenoxolone], for which the “reduction of intraocular pressure” value in test [1] is given as 20%. Besides, the hepatic insulin sensitivity entry in test [2] was “improved”.

As for `COc1cc(S(=O)(=O)Nc2cccc(C)n2)ccc1-c1ccc(C#N)cc1` [Example 258], the Ki in test [3] (apparent Ki, 11β-hsd-1 enzyme) was 5.9 nM. Further, the inhibition at 0.1 µM in test [4] (compound at 0.1 uM) worked out at 100%.

As to `Cc1cccc(NS(=O)(=O)N2CCC(c3cccc(F)c3)CC2)n1` [Example 309], the Ki in test [3] (apparent Ki, 11β-hsd-1 enzyme) came out at 7.6 nM. Also, the inhibition at 0.1 µM in test [4] (compound at 0.1 uM) amounted to 90%.

As to `Cc1cccc(NS(=O)(=O)c2ccc(-c3ccc(F)cc3C)cc2C)n1` [Example 204], in test [3] (apparent Ki, 11β-hsd-1 enzyme), the Ki worked out at 10 nM. The inhibition at 0.1 µM in test [4] (compound at 0.1 uM) is 85%.

Turning to `Cc1cccc(NS(=O)(=O)c2ccc(-c3ccc(C#N)cc3C(F)(F)F)cc2)n1` [Example 272], the Ki in test [3] (apparent Ki, 11β-hsd-1 enzyme) is 12 nM. Further, the inhibition at 0.1 µM in test [4] (compound at 0.1 uM) came out at 100%.

`Cc1cccc(NS(=O)(=O)c2ccc(-c3ccc(CO)cc3)cc2C)n1` [Example 180]: the Ki in test [3] is 75 nM. For the same compound, the inhibition at 0.1 µM in test [4] (0.1 uM) was determined as 65%.

With `CCc1cccc(NS(=O)(=O)c2cccc(Cl)c2C)n1` [Example 56], the Ki in test [3] turned out to be 47.6 nM. Besides, the inhibition at 0.1 µM in test [4] (0.1 uM) was found to be 66.8%.

With `N#Cc1ccc(-c2ccc(S(=O)(=O)Nc3cccc(C4CC4)n3)cn2)cc1` [Example 293, 6-(4-Cyano-phenyl)-pyridine-3-sulfonic acid (6-cyclopropyl-pyridin-2-yl)-amide], the Ki in test [3] (apparent Ki, 11β-hsd-1 enzyme) worked out at 6.4 nM. The inhibition at 0.1 µM in test [4] (compound at 0.1 uM) came out at 100%.

Turning to `Cc1cccc(NS(=O)(=O)c2cccc(Cl)c2C)n1` [Example 34], in test [3], the Ki came to 169 nM. Also, in test [4] (0.1 uM), the inhibition at 0.1 µM turned out to be 48.8%.

In the case of `Cc1cccc(NS(=O)(=O)c2ccc(-c3ccc(N4CCOCC4)cc3)cc2)n1` [Example 251], the Ki in test [3] (apparent Ki, 11β-hsd-1 enzyme) came out at 29 nM. Moreover, in test [4] (compound at 0.1 uM), the inhibition at 0.1 µM is 83.6%.

Regarding `Cc1cccc(NS(=O)(=O)c2ccc(-c3ccc(C#N)cc3)c(C(F)(F)F)c2)n1` [Example 285, 4′-Cyano-2-trifluoromethyl-biphenyl-4-sulfonic acid (6-methyl-pyridin-2-yl)-amide], the Ki in test [3] (apparent Ki, 11β-hsd-1 enzyme) is 2.9 nM. Also, the inhibition at 0.1 µM in test [4] (compound at 0.1 uM) turned out to be 100%.
